“Also recorded” adds a separate entry of the source.
Assays:
human naïve CD4 T cells [1] = assay: In vitro Tfh differentiation, PD-1 and CXCR5 expression by FACS; format: cell-based
Procedure: For surface staining, primary-staining panels used for phenotypic analysis or for cell sorting known in the art were used. For the intranuclear staining: cells were treated with the FoxP3 Fixation/Permeabilization kit (eBioscience) and stained in Permeabilization buffer (eBioscience). For cytokine staining: day 3 or day 5 in vitro differentiated cells (specified in the main text or in figure legends) cells were stimulated for 5 hours at 37° C. with Phorbol 12-myristate 13-acetate (PMA, 25 ng/ml) and Ionomycin (1 μg/ml) in the presence of Brefeldin A (5 μg/ml). Cells were fixed with PBS 2% FBS, 1% PFA and permeabilized with PBS 2% FBS, 0.5% Saponin (from quillaja bark, Sigma-Aldrich). Samples were analyzed on a LSR Fortessa Cell Analyzer (BD, Bioscience). Flow cytometry data were analyzed with FlowJo (Tree Star). For cell sorting, cells were sorted using sorted using a FACS Aria (BD, Bioscience).
Unless differently specified, naïve CD4^+ T cells were enriched from PBMCs by magnetic bead negative selection with the Naïve CD4^+ T Cell Isolation Kit (Stem Cell Technologies). Purity (CD4^+CD45RA^+) was 90% or higher. Cells (7.5×10^4 cells/well) were activated by Dynabeads Human T-Activator CD3/CD28 (2 μl/well, Life Technologies) and cultured with recombinant human/mouse/rat activin A (50 ng/ml or 100 ng/ml), recombinant human IL-12 (5 ng/ml), recombinant human TGFβ (1 ng/ml), recombinant human IL-23 (10 ng/ml) or recombinant human IL-35 (10 ng/ml) in the presence of and recombinant human IL-7 (4 ng/ml) in AIM-V medium (Life Technologies). All cytokines were from R&D System and Peprotech. The 14 kDa mature human beta A chain of human activin A shares 100% amino acid sequence identity with bovine, feline, mouse, porcine, and rat beta A. Phenotype was quantified after 3 or 5 days, as specified in the main text of Figure legends. Similar results were obtained when using Treg-depleted FACS sorted naïve CD4 T cells, in which cells were sorted from total PBMCs by flow cytometry as CD19^−CD8^−CD14^−CD16^− CD4^+CD45RO^−CD25^− cells. For experiments quantifying supernatant CXCL13 concentration, cells were activated by plate-bound anti-human CD3 (5 μg/ml, BD) and ICOS-L (5 μg/ml, recombinant human B7-H2, R&D). CXCL13 concentrations were determined via human CXCL13 DuoSet ELISA (R&D) on supernatants harvested after 5 days of in vitro culture. For blocking experiments, cells were cultured with anti-activin A blocking mAb (5 μg/ml, clone 69403, R&D), anti-TGFβ mAb (100 μg/ml, clone 1D11.16.8, BioXcell), or equivalent concentration of mouse IgG1 isotype mAb (BioXcell). For blockade of IL-2, cells were cultured with anti-IL-2 blocking mAb (10 μg/ml, clone 5334, R&D) or mouse IgG1 isotype mAb (BioXcell).

human naïve CD4 T cells [2] = assay: Screening of secretomics recombinant proteins for Tfh marker induction; format: cell-based; details: secretomics protein screen, anti-CD3/CD28 beads, 5 days, automated FACS
Procedure: FIG. 1A-D: Inhibin beta A (INHBA) emerged from the screen as potent regulator of human Tfh differentiation. (A) Schematic of primary screen. Purified human naïve CD4 T cells from a leukapheresis donor were stimulated by anti-CD3/CD28 beads on 384 well plates on day 0. The GNF secretomics recombinant proteins were added at the beginning of the stimulation. Each secretomics protein was tested in duplicate. After 5 days of in vitro culture, cells were evaluated by automated FACS analysis for the expression of Tfh signature markers, including CXCR5 and PD-1. (B) Primary screen results. Relative enrichment of PD-1^+CXCR5^+ cell induction is reported as Z score for each recombinant protein. INHBA gene product is shown in red. (C) CXCR5 and PD-1 expression from repeat experiment in which INHBA gene product was tested again for its capacity to induce Tfh-like differentiation. (D) Confocal microscopy of INHBA expression in human tonsils. Tonsil sections were stained with anti-INHBA (red) anti-BCL6 (blue) and anti-CD3 (green) Abs. An overlay from one donor representative of six is shown on the left panel. […]
Naïve CD4^+ T cells were isolated from leukapheresis-derived mononuclear cells via CliniMACS negative selection (Miltenyi Biotec). […] Induction of CXCR5 and PD-1 was assessed after 5 days of in vitro culture using automated FACS acquisition via HTS on LSR Fortessa (BD Biosciences). For each 384 well plate, mean and standard deviation of PD-1^+CXCR5^+ cell frequency induced by each individual recombinant proteins was determined and used to calculate the Z score. Z scores of replicate plates were analyzed independently.
To discover novel regulators of human Tfh cell differentiation, we performed an unbiased high throughput screen of a human extracellular proteome library consisting of over 2000 human proteins predicted or known to be cytokines, chemokines, morphogens, costimulatory receptors, or single pass transmembrane molecules^19. […] Following 5 days, expression of the Tfh signature markers CXCR5 and PD-1 were measured on the cells by flow cytometry, in an automated fashion. […]

[3] = activin A alone, anti CD3/CD28 coated beads

Row | Substance | induction of CXCR5 and PD-1 expression (human naïve CD4 T cells [1]; TGFβ with IL-12, serum free media) | induction of CXCR5 and PD-1 expression (PD-1+CXCR5+ cells) (human naïve CD4 T cells [2]) | CXCR5 expression (human naïve CD4 T cells [1]; [3]) | PD-1 induction (human naïve CD4 T cells [1]; [3]) | PD-1 and CXCR5 expression (PD1+CXCR5+ cells), additive or synergistic effect (human naïve CD4 T cells [1]; activin A combined with TGFβ) | retention of CXCR5 and PD-1 expression over time (human naïve CD4 T cells [1]; activin A in combination with IL-12, monitored 0-10 days) | capacity to regulate differentiation of PD-1+CXCR5+ cells, TGFβ compared with activin A (human naïve CD4 T cells [1]; combined with IL-12) | coexpression of PD-1 and CXCR5 (PD-1+CXCR5+ cells) (human naïve CD4 T cells [1]; in combination with IL-12) | PD-1 and CXCR5 expression on activated naïve CD4 T cells (human naïve CD4 T cells [1]; serum free conditions, activin A titration)
1 | TGFβ | can synergize with IL-12 to induce CXCR5 and PD-1 expression | regulator T cell differentiation | – | – | – | – | – | – | –
2 | activin A: commercial recombinant cytokine, homodimer of the INHBA gene product (inhibin beta A) | – | potent regulator of the human Tfh gene program; also recorded: top hit in the screen | some CXCR5 expression | massive PD-1 induction | no synergy between TGFβ and activin A; also recorded: neither PD-1 nor CXCR5 expression changed when activin A and TGFβ were combined | retained | induced similar levels of CXCR5 and PD-1 expression compared to TGFβ | dramatic increase in the coexpression of PD-1 and CXCR5; also recorded: synergistic effect with IL-12 | induces both PD-1 and CXCR5 expression on activated naïve CD4 T cells in a dose dependent fashion

Reference: patent US20180111991A1, “MODULATORS OF ACTIVIN AND METHODS FOR MODULATING IMMUNE RESPONSES AND T FOLLICULAR HELPER CELLS” (LA JOLLA INSTITUTE FOR ALLERGY AND IMMUNOLOGY, priority 2014, published 2018)
